Consider four compounds from ChEMBL document CHEMBL1142905, “1,4-Bis(alkylamino)benzo[g]phthalazines able to form dinuclear complexes of Cu(II) which as free ligands behave as SOD inhibitors and show efficient in vitro activity against Trypanosoma cruzi” (Bioorg Med Chem, 2007).

In brackets after ≈: the same amount, converted by molar mass.

For data set [1], the system named is Trypanosoma cruzi. In words: Inhibition of Trypanosoma cruzi Maracay epimastigotes after 48 hrs. The format is functional, organism-based.
Data set [2] has as its system Trypanosoma cruzi. In words: Inhibition of Trypanosoma cruzi Maracay epimastigotes after 72 hrs. The format is functional, organism-based.
Data set [3] is described as follows: Toxicity against Vero cells after 72 hrs. The format is cell-based. Particulars: Chlorocebus sabaeus (African green monkey).
The subject of data set [4] is Trypanosoma cruzi. In words: Inhibition of rate of infection with Trypanosoma cruzi Maracay metacyclic form in Vero cells at 5 ug/mL after 8 days. In kind it is functional. Particulars: 192 h.
The test system of data set [5] is Trypanosoma cruzi. In words: Reduction of Trypanosoma cruzi Maracay amastigotes infection in Vero cells at 5 ug/Ml after 8 days relative to control. In kind it is functional. Also on record: scale not given: the % may be the effect or the level left.
For data set [6], the system named is Trypanosoma cruzi. In words: Reduction of Trypanosoma cruzi Maracay trypomastigote infection in Vero cells. In kind it is functional. Also noted: scale not given: the % may be the effect or the level left.
Data set [7] has as its system Trypanosoma cruzi. In words: Inhibition of Fe-SOD in Trypanosoma cruzi Maracay at 10 ug/mL.
Data set [8] deals with Trypanosoma cruzi. In words: Inhibition of Fe-SOD in Trypanosoma cruzi Maracay at 25 ug/mL.
The species named for data set [9] is Homo sapiens. In words: Inhibition of Cu-Zn SOD in human erythrocytes at 1 ug/mL. In kind it is cell-based.
For data set [10], the species on record is Homo sapiens. In words: Inhibition of Cu-Zn SOD in human erythrocytes at 10 ug/mL. In kind it is cell-based.
The species named for data set [11] is Homo sapiens. In words: Inhibition of Cu-Zn SOD in human erythrocytes at 25 ug/mL. The format is cell-based.
The test system of data set [12] is Trypanosoma cruzi. In words: Inhibition of Fe-SOD in Trypanosoma cruzi Maracay at 1 ug/mL.
Data set [13] has as its system Trypanosoma cruzi. In words: Inhibition of Trypanosoma cruzi Maracay epimastigotes after 24 hrs. The format is functional, organism-based.
The test system of data set [14] is Trypanosoma cruzi. In words: Inhibition of rate of infection with Trypanosoma cruzi Maracay metacyclic form in Vero cells at 5 ug/mL after 2 days. In kind it is functional. Also noted: scale not given: the % may be the effect or the level left.

As usually defined, the IC50 is the midpoint of a concentration-inhibition curve. The inhibition is the share of the control response that was lost under treatment. In the case of `NCCOCCNc1nnc(NCCOCCN)c2cc3ccccc3cc12`, the IC50 is 15.6 µg/mL (≈ 40.6 µM) in the data set with Trypanosoma cruzi [1] and 12 µg/mL (≈ 31.3 µM) with Trypanosoma cruzi [2]. In [3], this compound registered an IC50 at 72 h of 67.3 µg/mL (≈ 175 µM). The compound further returned an inhibition at 5 µg/mL in the data set on Trypanosoma cruzi [4] of 57%. Also, the Activity in the data set with Trypanosoma cruzi [5] is given as 43%; with Trypanosoma cruzi [6], 65%. Also, the inhibition with Trypanosoma cruzi [7] was 73%; in the data set with Trypanosoma cruzi [8] it was 100%; in the data set listed under Homo sapiens [9], 0%; in the data set listed under Homo sapiens [10], 11%; in the data set listed under Homo sapiens [11], 17%; in the data set on Trypanosoma cruzi [12], 48%.

As to `OCCOCCNc1nnc(NCCOCCO)c2cc3ccccc3cc12`, the half-maximal inhibitory concentration (IC50) in the data set with Trypanosoma cruzi [13] was found to be 75.4 µg/mL (≈ 195 µM); with Trypanosoma cruzi [1], 62.6 µg/mL (≈ 162 µM); with Trypanosoma cruzi [2], 30.6 µg/mL (≈ 79.2 µM). The compound also registered an IC50 at 72 h in data set [3] of 93.5 µg/mL (≈ 242 µM). The inhibition in the data set on Trypanosoma cruzi [7] worked out at 34%; in the data set with Trypanosoma cruzi [8] it was 53%; in the data set filed under Homo sapiens [9], 0%; in the data set filed under Homo sapiens [10] it was 0%; in the data set listed under Homo sapiens [11] it was 0%; with Trypanosoma cruzi [12], 27%.

`O=C(Cn1ccnc1[N+](=O)[O-])NCc1ccccc1` [BENZNIDAZOLE]: the IC50 at 72 h in [3] turned out to be 3.53 µg/mL (≈ 13.6 µM).

Take `c1ccc(COCCCNc2nnc(NCCCOCc3ccccn3)c3cc4ccccc4cc23)nc1`: the IC50 amounted to 56.8 µg/mL (≈ 112 µM) in the data set with Trypanosoma cruzi [13], 12.8 µg/mL (≈ 25.3 µM) with Trypanosoma cruzi [1] and 3.25 µg/mL (≈ 6.39 µM) with Trypanosoma cruzi [2]. The midpoint of inhibition in [3], the IC50 at 72 h, lay at 6.25 µg/mL (≈ 12.3 µM). For the same compound, the Activity with Trypanosoma cruzi [14] is listed as 35%; in the data set on Trypanosoma cruzi [5], 44%; with Trypanosoma cruzi [6], 74%. In the data set on Trypanosoma cruzi [4], this compound came in with an inhibition at 5 µg/mL of 68%. Moreover, the inhibition is 68% with Trypanosoma cruzi [7]; 75% in the data set on Trypanosoma cruzi [8]; 0% in the data set filed under Homo sapiens [9]; 7% in the data set filed under Homo sapiens [10]; 11% in the data set listed under Homo sapiens [11]; 64% with Trypanosoma cruzi [12].
